Results: ChEMBL document CHEMBL4765362, “Thirty Years of HDAC Inhibitors: 2020 Insight and Hindsight” (J Med Chem, 2020)
One block for each molecule: values may come before it.

Tests used:
Histone deacetylase 1 [1] = molecular target: T1, Histone deacetylase 1 (Homo sapiens, UniProt Q13547); experiment: Inhibition of HDAC1 (unknown origin) using Ac-Leu-Gly-Lys(Ac)-AMC as substrate measured every 30 secs for 60 mins by fluorescence-based assay
Histone deacetylase 2 [2] = molecular target: T2, Histone deacetylase 2 (Homo sapiens, UniProt Q92769); experiment: Inhibition of human HDAC2 expressed in Sf9 cells using Ac-Leu-Gly-Lys(Ac)-AMC as substrate measured every 30 secs for 60 mins by fluorescence-based assay
T2 sequence (Q92769 whole entry, the tested form may be a part): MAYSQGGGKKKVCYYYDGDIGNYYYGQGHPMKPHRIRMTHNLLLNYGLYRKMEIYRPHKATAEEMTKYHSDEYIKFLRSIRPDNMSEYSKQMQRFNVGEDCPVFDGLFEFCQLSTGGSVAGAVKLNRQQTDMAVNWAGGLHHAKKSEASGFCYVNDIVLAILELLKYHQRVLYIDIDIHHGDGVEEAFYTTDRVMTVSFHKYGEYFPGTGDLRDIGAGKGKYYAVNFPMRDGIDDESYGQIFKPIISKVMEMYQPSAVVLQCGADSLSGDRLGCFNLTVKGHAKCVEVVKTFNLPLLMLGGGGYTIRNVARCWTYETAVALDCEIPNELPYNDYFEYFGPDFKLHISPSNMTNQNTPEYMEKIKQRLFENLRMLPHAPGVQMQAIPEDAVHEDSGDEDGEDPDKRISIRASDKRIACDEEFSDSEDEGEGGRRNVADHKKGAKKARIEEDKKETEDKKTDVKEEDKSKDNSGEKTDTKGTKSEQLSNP

[3] = molecular target: Histone deacetylase 3/Nuclear receptor corepressor 2 (HDAC3/NCoR2) (Homo sapiens, UniProt O15379); experiment: Inhibition of human C-terminal His-tagged HDAC3 (1 to 428 residues)/human N-terminal GST-tagged NcoR2 (395 to 489 residues) expressed in sf9 cells using Ac-Leu-Gly-Lys(Ac)-AMC as substrate measured every 30 secs for 60 mins by fluorescence-based assay
Histone deacetylase 5 [4] = molecular target: T3, Histone deacetylase 5 (Homo sapiens, UniProt Q9UQL6); experiment: Inhibition of human HDAC5 expressed in baculovirus infected sf9 cells using (Boc-Lys(trifluoroacetyl)-AMC) as substrate by fluorescence-based assay
T3 sequence (Q9UQL6 whole entry): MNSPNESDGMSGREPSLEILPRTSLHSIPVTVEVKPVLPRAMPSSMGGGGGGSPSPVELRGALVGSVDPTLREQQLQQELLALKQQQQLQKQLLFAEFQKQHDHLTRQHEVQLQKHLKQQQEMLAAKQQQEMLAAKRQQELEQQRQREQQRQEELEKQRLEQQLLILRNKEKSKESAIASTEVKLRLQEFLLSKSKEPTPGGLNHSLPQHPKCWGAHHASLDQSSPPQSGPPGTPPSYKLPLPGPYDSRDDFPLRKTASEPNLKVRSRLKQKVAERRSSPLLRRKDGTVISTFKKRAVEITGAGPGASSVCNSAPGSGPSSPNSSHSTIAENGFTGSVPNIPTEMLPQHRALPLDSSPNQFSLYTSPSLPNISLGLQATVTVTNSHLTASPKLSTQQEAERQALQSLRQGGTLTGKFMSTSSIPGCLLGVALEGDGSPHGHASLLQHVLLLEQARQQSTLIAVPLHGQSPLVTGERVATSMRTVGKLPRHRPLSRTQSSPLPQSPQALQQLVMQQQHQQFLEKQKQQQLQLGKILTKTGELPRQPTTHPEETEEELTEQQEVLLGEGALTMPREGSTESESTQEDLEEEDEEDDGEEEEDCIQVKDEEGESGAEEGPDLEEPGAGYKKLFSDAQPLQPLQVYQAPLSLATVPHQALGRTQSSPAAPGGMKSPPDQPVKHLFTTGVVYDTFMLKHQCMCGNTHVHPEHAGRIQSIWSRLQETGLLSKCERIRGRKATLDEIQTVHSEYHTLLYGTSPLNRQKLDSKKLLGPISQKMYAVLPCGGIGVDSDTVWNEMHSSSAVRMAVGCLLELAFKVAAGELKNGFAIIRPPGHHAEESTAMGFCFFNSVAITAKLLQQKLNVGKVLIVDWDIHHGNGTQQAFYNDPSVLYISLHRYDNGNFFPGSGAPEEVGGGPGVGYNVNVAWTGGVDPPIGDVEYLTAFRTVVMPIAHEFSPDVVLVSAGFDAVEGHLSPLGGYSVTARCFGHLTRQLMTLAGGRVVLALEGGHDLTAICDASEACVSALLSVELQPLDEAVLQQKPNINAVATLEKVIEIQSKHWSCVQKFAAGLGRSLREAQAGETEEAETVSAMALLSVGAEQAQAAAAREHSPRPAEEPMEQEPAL

Histone deacetylase 9 [5] = molecular target: T4, Histone deacetylase 9 (Homo sapiens, UniProt Q9UKV0); experiment: Inhibition of human HDAC9 expressed in baculovirus infected sf9 cells using (Boc-Lys(trifluoroacetyl)-AMC) as substrate by fluorescence-based assay
T4 sequence (Q9UKV0 whole entry): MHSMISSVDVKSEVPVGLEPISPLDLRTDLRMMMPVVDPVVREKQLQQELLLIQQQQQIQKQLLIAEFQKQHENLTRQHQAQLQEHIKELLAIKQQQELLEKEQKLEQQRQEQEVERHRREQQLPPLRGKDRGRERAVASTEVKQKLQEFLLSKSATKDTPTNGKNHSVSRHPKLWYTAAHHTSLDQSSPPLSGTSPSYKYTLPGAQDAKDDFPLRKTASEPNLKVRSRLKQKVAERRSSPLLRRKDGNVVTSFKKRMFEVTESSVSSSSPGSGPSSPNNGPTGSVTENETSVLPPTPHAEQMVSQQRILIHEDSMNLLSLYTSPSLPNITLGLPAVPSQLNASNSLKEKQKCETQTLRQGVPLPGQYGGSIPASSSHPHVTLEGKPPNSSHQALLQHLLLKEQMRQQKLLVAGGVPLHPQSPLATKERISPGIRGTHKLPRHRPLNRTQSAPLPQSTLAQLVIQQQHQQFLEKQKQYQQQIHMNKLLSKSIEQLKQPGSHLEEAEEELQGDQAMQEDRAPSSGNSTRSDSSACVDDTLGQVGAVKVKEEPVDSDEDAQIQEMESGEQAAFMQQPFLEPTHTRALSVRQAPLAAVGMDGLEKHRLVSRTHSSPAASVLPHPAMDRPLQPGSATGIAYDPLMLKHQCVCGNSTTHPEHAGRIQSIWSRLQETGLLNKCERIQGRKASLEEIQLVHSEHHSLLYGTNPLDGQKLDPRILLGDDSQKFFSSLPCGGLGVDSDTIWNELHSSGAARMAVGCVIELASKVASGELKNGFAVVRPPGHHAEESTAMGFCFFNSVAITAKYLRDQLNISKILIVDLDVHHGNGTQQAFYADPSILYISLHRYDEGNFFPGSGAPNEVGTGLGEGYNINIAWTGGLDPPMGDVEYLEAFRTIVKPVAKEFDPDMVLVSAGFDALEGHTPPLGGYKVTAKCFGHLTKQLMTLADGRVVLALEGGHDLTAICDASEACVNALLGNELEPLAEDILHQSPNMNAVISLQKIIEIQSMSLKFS

[6] = molecular target: T5, Polyamine deacetylase HDAC10 (Homo sapiens, UniProt Q969S8); experiment: Inhibition of HDAC10 (unknown origin)
T5 sequence (Q969S8 whole entry): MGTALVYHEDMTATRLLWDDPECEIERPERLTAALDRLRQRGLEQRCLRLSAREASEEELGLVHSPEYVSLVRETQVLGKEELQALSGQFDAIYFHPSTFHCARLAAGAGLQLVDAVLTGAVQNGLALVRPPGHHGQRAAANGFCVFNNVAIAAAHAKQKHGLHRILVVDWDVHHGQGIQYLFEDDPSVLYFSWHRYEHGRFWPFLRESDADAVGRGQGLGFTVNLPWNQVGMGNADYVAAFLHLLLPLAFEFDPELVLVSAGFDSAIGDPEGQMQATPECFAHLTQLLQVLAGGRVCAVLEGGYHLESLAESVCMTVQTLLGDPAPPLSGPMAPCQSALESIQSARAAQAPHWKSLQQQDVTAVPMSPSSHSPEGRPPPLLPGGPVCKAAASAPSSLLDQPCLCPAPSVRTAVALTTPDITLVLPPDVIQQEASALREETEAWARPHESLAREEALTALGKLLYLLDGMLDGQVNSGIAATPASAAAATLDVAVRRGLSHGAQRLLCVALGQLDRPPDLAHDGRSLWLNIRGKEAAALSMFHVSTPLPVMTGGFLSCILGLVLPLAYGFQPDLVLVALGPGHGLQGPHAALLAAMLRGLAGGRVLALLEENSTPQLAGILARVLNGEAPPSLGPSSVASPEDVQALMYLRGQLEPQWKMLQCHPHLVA

Histone deacetylase 1 [7] = molecular target: T1, Histone deacetylase 1; experiment: Inhibition of HDAC1 (unknown origin)
Histone deacetylase 2 [8] = molecular target: T2, Histone deacetylase 2; experiment: Inhibition of HDAC2 (unknown origin)
Histone deacetylase 3 [9] = molecular target: T6, Histone deacetylase 3 (Homo sapiens, UniProt O15379); experiment: Inhibition of HDAC3 (unknown origin)
T6 sequence (O15379 whole entry): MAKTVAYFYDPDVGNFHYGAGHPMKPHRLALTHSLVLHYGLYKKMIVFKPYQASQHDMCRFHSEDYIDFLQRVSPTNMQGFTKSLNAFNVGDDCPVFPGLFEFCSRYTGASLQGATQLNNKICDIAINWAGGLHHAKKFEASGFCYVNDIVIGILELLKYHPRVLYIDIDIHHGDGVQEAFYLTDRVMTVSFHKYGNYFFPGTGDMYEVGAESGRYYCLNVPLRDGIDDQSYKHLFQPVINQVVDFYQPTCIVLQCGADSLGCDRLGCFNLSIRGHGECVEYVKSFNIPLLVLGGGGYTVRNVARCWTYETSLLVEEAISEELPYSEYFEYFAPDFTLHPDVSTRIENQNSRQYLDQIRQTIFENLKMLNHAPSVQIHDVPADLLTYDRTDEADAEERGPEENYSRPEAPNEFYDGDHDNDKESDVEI

Histone deacetylase 11 = molecular target: T7, Histone deacetylase 11 (Homo sapiens, UniProt Q96DB2); experiment: Inhibition of human C-terminal Flag-tagged HDAC11 expressed in sf9 cells using Boc-Lys(Ac)-AMC as substrate preincubated for 10 mins followed by substrate addition by fluorometry
T7 sequence (Q96DB2 whole entry): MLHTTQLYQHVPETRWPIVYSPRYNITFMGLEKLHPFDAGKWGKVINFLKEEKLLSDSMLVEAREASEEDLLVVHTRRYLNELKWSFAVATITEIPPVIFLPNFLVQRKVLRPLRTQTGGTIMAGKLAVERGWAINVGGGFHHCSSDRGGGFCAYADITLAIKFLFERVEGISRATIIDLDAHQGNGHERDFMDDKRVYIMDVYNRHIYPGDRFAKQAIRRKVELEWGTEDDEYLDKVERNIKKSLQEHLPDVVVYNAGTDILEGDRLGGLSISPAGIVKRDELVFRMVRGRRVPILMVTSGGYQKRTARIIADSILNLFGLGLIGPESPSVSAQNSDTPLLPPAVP

[10] = Inhibition of LSD1-HDAC1-CoREST (unknown origin) using Boc-(Ac)Lys-AMC as substrate incubated for 20 mins by fluorescence-based assay; parameters: species or system Homo sapiens
[11] = molecular target: T5, Polyamine deacetylase HDAC10; experiment: Inhibition of recombinant human HDAC10 (2 to 631 residues) expressed in baculovirus infected sf9 cells using Fluor-de-lys as substrate preincubated for 15 mins followed by substrate addition and measured after 60 mins by fluorescence method
Histone deacetylase 9 [12] = molecular target: T4, Histone deacetylase 9; experiment: Inhibition of C-terminal His-tagged human HDAC9 (604 to 1066 residues) expressed in baculovirus infected sf9 cells using Boc-L-Lys-MCA as substrate preincubated for 15 mins followed by substrate addition and measured after 60 mins by fluorescence method
Histone deacetylase 4 [13] = molecular target: T8, Histone deacetylase 4 (Homo sapiens, UniProt P56524); experiment: Inhibition of human HDAC4 expressed in baculovirus infected sf9 cells using Boc-L-Lys-MCA as substrate preincubated for 15 mins followed by substrate addition and measured after 60 mins by fluorescence method
T8 sequence (P56524 whole entry): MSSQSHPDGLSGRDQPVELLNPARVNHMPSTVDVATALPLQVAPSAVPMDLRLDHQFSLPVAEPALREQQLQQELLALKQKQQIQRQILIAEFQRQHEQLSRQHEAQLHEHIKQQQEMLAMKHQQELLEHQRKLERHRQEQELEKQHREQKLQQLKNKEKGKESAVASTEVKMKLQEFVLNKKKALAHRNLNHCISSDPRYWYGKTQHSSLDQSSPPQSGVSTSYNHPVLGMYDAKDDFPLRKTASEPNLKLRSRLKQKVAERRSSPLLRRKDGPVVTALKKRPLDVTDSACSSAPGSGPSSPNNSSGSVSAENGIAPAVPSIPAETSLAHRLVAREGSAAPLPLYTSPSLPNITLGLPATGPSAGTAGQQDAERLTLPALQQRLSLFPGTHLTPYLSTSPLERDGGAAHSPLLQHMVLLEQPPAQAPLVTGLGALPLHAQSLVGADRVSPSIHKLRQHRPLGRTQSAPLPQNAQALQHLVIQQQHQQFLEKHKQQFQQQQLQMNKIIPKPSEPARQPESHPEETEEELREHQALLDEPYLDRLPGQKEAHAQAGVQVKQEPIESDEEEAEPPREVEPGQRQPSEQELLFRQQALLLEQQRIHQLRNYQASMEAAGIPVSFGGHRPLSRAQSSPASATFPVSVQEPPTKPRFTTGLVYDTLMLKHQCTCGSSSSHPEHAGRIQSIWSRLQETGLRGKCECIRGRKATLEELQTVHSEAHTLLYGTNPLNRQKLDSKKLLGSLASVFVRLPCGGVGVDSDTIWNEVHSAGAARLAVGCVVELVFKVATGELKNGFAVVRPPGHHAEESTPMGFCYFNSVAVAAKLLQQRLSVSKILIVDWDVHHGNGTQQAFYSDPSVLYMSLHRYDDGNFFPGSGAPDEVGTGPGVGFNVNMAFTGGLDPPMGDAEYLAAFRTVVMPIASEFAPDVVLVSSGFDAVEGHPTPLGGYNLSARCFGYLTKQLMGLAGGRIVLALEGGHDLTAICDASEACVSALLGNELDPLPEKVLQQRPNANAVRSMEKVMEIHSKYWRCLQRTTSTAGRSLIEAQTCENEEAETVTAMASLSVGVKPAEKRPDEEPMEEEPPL

Histone deacetylase 5 [14] = molecular target: T3, Histone deacetylase 5; experiment: Inhibition of human HDAC5 using Boc-L-Lys-MCA as substrate preincubated for 15 mins followed by substrate addition and measured after 60 mins by fluorescence method
Histone deacetylase 4 [15] = molecular target: T8, Histone deacetylase 4; experiment: Binding affinity to human full length N-terminal GST-tagged HDAC4 by surface plasmon resonance analysis
Histone deacetylase 8 = molecular target: T9, Histone deacetylase 8 (Homo sapiens, UniProt Q9BY41); experiment: Inhibition of recombinant human C-terminal His-tagged HDAC8 expressed in baculovirus infected sf9 cells using p53 (379 to 382 residues) (Arg-His-Lys(Ac)-Lys(Ac)) by fluorimetric assay
T9 sequence (Q9BY41 whole entry): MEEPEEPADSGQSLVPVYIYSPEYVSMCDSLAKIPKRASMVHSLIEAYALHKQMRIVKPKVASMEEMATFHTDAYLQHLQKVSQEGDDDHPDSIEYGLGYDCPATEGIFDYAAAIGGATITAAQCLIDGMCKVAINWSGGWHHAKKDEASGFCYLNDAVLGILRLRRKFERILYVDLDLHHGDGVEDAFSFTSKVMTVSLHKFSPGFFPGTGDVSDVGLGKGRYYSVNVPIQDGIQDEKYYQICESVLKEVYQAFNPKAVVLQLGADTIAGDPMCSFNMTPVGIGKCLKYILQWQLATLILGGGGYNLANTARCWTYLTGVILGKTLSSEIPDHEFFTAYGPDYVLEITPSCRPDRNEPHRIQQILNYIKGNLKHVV

[16] = molecular target: T5, Polyamine deacetylase HDAC10; experiment: Inhibition of recombinant human N-terminal FLAG-tagged HDAC10 (2 to 631 residues) expressed in baculovirus infected sf9 cells using p53 (379 to 382 residues) (Arg-His-Lys(Ac)-Lys(Ac)) as substrate by fluorimetric assay
Histone deacetylase 1 [17] = molecular target: T1, Histone deacetylase 1; experiment: Inhibition of human HDAC1 using Boc-Lys(Ac)-AMC as substrate preincubated for 30 mins followed by substrate addition and measured after 60 mins by […] assay
Histone deacetylase 3 [18] = molecular target: T6, Histone deacetylase 3; experiment: Inhibition of human HDAC3 using Boc-Lys(Ac)-AMC as substrate preincubated for 30 mins followed by substrate addition and measured after 60 mins by […] assay
[19] = molecular target: T10, Protein deacetylase HDAC6 (Homo sapiens, UniProt Q9UBN7); experiment: Inhibition of human HDAC6 using Boc-Lys(Ac)-AMC as substrate preincubated for 30 mins followed by substrate addition and measured after 60 mins by […]
T10 sequence (Q9UBN7 whole entry): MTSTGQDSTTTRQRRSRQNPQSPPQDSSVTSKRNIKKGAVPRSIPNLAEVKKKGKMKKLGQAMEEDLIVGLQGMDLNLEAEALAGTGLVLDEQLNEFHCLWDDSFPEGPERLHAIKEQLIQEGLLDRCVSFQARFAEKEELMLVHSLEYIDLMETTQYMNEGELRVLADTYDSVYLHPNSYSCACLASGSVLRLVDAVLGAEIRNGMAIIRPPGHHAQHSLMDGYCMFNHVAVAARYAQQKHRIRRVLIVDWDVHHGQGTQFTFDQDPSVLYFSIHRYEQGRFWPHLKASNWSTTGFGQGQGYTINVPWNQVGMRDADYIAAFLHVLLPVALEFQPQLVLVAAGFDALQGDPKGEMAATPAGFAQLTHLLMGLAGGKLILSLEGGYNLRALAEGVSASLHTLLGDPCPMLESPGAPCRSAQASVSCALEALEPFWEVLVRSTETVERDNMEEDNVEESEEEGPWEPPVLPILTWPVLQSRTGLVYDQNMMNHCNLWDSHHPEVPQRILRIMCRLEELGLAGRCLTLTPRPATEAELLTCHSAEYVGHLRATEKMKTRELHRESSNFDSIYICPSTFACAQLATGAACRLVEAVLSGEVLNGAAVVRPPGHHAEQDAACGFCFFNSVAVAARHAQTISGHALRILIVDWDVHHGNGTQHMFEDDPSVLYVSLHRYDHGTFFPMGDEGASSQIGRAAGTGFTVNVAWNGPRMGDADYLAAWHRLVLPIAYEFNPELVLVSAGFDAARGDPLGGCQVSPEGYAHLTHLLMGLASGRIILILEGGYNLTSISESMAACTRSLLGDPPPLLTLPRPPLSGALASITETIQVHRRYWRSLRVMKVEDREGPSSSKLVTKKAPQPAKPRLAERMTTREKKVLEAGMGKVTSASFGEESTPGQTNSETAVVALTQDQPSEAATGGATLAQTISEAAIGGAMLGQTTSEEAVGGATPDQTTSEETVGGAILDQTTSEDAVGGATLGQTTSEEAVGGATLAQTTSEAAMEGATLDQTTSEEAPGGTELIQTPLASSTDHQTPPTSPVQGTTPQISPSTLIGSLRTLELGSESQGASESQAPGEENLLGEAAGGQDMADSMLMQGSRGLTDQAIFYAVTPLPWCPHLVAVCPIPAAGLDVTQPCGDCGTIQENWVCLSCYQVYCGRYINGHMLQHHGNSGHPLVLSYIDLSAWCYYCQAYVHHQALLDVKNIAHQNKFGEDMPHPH

Histone deacetylase 4 [20] = molecular target: T8, Histone deacetylase 4; experiment: Inhibition of human HDAC4 using Boc-Lys(tri-fluoracetyl)-AMC as substrate preincubated for 30 mins followed by substrate addition and measured after 60 mins by […] assay

T1 sequence (Q13547 whole entry): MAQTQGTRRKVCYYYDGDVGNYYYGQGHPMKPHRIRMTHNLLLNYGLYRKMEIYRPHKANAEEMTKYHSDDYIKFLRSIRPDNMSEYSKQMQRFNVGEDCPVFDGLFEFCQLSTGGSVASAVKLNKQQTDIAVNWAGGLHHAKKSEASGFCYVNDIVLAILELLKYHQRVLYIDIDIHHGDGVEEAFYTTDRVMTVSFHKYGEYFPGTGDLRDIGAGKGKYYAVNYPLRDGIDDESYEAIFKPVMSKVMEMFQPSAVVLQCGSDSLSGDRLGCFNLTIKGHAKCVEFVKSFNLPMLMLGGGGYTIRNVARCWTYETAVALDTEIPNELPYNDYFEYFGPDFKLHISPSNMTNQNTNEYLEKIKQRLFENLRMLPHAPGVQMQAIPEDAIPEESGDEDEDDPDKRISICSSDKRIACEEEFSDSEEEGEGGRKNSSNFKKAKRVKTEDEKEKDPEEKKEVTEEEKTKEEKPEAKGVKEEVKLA

Structure (SMILES): C/C=C1\NC(=O)[C@@H](C)NC(=O)[C@@H](C(C)C)NC(=O)C[C@@H](CCC)OC(=O)[C@H](C(C)C)NC1=O
Ki (Histone deacetylase 1 [1]): 0.69 µM
Ki (Histone deacetylase 2 [2]): 0.37 µM
Ki [3]: 0.8 µM

Structure (SMILES): Cc1ncsc1-c1ccc(CNC(=O)[C@@H]2C[C@@H](O)CN2C(=O)[C@@H](NC(=O)CCCCCCCCCCC(=O)Nc2ccc(C(=O)Nc3cc(-c4ccccc4)ccc3N)cc2)C(C)(C)C)cc1
IC50 [10]: 17 µM

Structure (SMILES): CCN(CC)Cc1ccc2cc(COC(=O)Nc3ccc(C(=O)NO)cc3)ccc2c1 [GIVINOSTAT]
IC50 [11]: 0.331 µM
IC50 (Histone deacetylase 9 [12]): 0.512 µM
IC50 (Histone deacetylase 4 [13]): > 1 µM
IC50 (Histone deacetylase 5 [14]): 0.532 µM

Structure (SMILES): COc1cccc2c1c(O)c(C(=O)N(C)c1ccc(C(F)(F)F)cc1)c(=O)n2C [TASQUINIMOD]
Kd (Histone deacetylase 4 [15]): 0.01 µM

Structure (SMILES): CCCCNNC(=O)c1ccc(Br)cc1
IC50 (Histone deacetylase 8): 2 µM
IC50 [16]: 15 µM

Structure (SMILES): N=C1Sc2ccccc2C2=NCCCN12
IC50 (Histone deacetylase 1 [17]): 4 µM
IC50 (Histone deacetylase 3 [18]): > 50 µM
IC50 [19]: 7 µM
IC50 (Histone deacetylase 4 [20]): 9 µM

More lines, now with the values ahead:

IC50 (Histone deacetylase 5 [4]): 0.004 µM
IC50 (Histone deacetylase 9 [5]): 0.032 µM
IC50 [6]: 0.0005 µM
Structure (SMILES): Cn1cc(CNCC2CCN(c3ncc(C(=O)NO)cn3)CC2)c2ccccc21 [QUISINOSTAT]

IC50 (Histone deacetylase 1 [7]): 0.1 µM
IC50 (Histone deacetylase 2 [8]): 0.6 µM
IC50 (Histone deacetylase 3 [9]): 0.6 µM
Structure (SMILES): Cc1cn(C)nc1CN1CCC(c2ccc(C(=O)Nc3ccccc3N)cc2)CC1

IC50 (Histone deacetylase 11): 0.6 µM
Structure (SMILES): Nc1ccccc1NC(=O)c1ccc(CNc2nccc(-c3cccnc3)n2)cc1 [MOCETINOSTAT]

IC50 (Histone deacetylase 5 [4]): 0.048 µM
IC50 (Histone deacetylase 9 [5]): 0.168 µM
Structure (SMILES): CN(C)Cc1c(C(=O)NCCOc2ccc(C(=O)NO)cc2)oc2ccccc12 [ABEXINOSTAT]
